The compounds below were run against T1, recombinant Plk1 protein (Homo sapiens, UniProt P53350) (assay: Plk1 kinase activity inhibition assay (33P-ATP, alpha casein substrate, flash plates)). Details: enzymatic assay, 100 nM Li-ATP, 80 minutes at 30° C.
T1 construct: histidine tag (N); made in house; host or cells: SF9 insect cells
Format: biochemical
Summary of the method: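 N-terminally His-tagged human Plk1 from SF9 cells (50–100 ng/well) phosphorylated alpha casein (500 ng/well) with 100 nM ATP including 33P-ATP at pH 7.5, with Mg2+ and Mn2+, 80 min at 30 °C. 33P incorporation read on scintillator-coated flash plates; IC50 derived.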

T1 sequence (P53350 whole entry): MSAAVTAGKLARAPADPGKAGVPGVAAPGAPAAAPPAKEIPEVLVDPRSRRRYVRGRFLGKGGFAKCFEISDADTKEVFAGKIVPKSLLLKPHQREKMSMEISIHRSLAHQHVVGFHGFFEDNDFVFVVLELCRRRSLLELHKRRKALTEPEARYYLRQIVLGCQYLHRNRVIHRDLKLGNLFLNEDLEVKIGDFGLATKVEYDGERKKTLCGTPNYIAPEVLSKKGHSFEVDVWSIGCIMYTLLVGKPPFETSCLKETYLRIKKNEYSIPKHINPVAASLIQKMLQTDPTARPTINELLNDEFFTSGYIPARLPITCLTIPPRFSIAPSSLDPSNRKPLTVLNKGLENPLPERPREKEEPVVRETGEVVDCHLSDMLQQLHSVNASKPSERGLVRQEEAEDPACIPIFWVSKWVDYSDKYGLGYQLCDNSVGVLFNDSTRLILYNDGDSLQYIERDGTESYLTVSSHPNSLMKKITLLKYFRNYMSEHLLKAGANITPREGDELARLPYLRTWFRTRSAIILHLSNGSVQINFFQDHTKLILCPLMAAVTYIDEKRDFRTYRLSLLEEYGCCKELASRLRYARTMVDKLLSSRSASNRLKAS

IC50 [nM] | Structure (SMILES)
10 to 100 | CC(=O)N1CCCN(Cc2cc3c(cn2)ncn3-c2cc(O[C@H](C)c3ccccc3C(F)(F)F)c(C(N)=O)s2)CC1 [Example 81, 5-{6-[(4-acetyl-1,4-diazepan-1-yl)methyl]-1H-imidazo[4,5-c]pyridin-1-yl}-3-{(1R)-1-[2-(trifluoromethyl)phenyl]ethoxy}thiophene-2-carboxamide]
10 to 100 | C[C@@H](Oc1cc(-n2cnc3cnc(CN4CCN(C(=O)c5ccccc5)CC4)cc32)sc1C(N)=O)c1ccccc1C(F)(F)F [Example 78, 5-{6-[(4-benzoylpiperazin-1-yl)methyl]-1H-imidazo[4,5-c]pyridin-1-yl}-3-{(1R)-1-[2-(trifluoromethyl)phenyl]ethoxy}thiophene-2-carboxamide]
< 10 | NC(=O)c1sc(-n2cnc3cnc(CO)cc32)cc1O[C@@H](CO)c1ccccc1Cl [Example 146, 3-[(1R)-1-(2-chlorophenyl)-2-hydroxyethoxy]-5-[6-(hydroxymethyl)-1H-imidazo[4,5-c]pyridin-1-yl]thiophene-2-carboxamide]
< 10 | C[C@@H](Oc1cc(-n2cnc3cnc(CN4CCN(S(C)(=O)=O)CC4)cc32)sc1C(N)=O)c1ccccc1C(F)(F)F [Example 66, 5-(6-{[4-(methylsulfonyl)piperazin-1-yl]methyl}-1H-imidazo[4,5-c]pyridin-1-yl)-3-{(1R)-1-[2-(trifluoromethyl)phenyl]ethoxy}thiophene-2-carboxamide]
10 to 100 | NC(=O)c1sc(-n2cnc3cnccc32)cc1OCc1ccccc1OC(F)(F)F [Example 33, 5-(1H-imidazo[4,5-c]pyridin-1-yl)-3-{[2-(trifluoromethoxy)benzyl]oxy}thiophene-2-carboxamide]
10 to 100 | C[C@@H](Oc1cc(-n2cnc3cnc(CN4CCN(c5ccncc5)CC4)cc32)sc1C(N)=O)c1ccccc1C(F)(F)F [Example 75, 5-{6-[(4-pyridin-4-ylpiperazin-1-yl)methyl]-1H-imidazo[4,5-c]pyridin-1-yl}-3-{(1R)-1-[2-(trifluoromethyl)phenyl]ethoxy}thiophene-2-carboxamide]
10 to 100 | NC(=O)c1sc(-n2cnc3ccncc32)cc1OCc1ccccc1F [Example 31, 3-[(2-fluorobenzyl)oxy]-5-(3H-imidazo[4,5-c]pyridin-3-yl)thiophene-2-carboxamide]
100 to 1000 | C[C@@H](Oc1cc(-n2cnc3cnc(CN4CCN(CCN(C)C)CC4)cc32)sc1C(N)=O)c1ccccc1F [Example 136, 5-[6-({4-[2-(dimethylamino)ethyl]piperazin-1-yl}methyl)-1H-imidazo[4,5-c]pyridin-1-yl]-3-[(1R)-1-(2-fluorophenyl)ethoxy]thiophene-2-carboxamide]
< 10 | CC(Oc1cc(-n2cnc3cc(CO)ncc32)sc1C(N)=O)c1ccccc1Cl (stereo not drawn) [Example 125, 3-[-1-(2-chlorophenyl)ethoxy]-5-[6-(hydroxymethyl)-3H-imidazo[4,5-c]pyridin-3-yl]thiophene-2-carboxamide]
< 10 | C[C@@H](Oc1cc(-n2cnc3cnc(CO)cc32)sc1C(N)=O)c1ccccc1C(F)(F)F [Example 25, 5-[6-(hydroxymethyl)-1H-imidazo[4,5-c]pyridin-1-yl]-3-{(1R)-1-[2-(trifluoromethyl)phenyl]ethoxy}thiophene-2-carboxamide]
10 to 100 | C[C@@H](Oc1cc(-n2cnc3cnc(CN4CCN(CC(=O)N(C)c5ccccc5)CC4)cc32)sc1C(N)=O)c1ccccc1C(F)(F)F [Example 86, 5-{6-[(4-{2-[methyl(phenyl)amino]-2-oxoethyl}piperazin-1-yl)methyl]-1H-imidazo[4,5-c]pyridin-1-yl}-3-{(1R)-1-[2-(trifluoromethyl)phenyl]ethoxy}thiophene-2-carboxamide]
10 to 100 | CCC(Oc1cc(-n2cnc3cnc(CN4CCCN(C)CC4)cc32)sc1C(N)=O)c1ccccc1Cl (stereo not drawn) [Example 141, 3-{[1-(2-chlorophenyl)propyl]oxy}-5-{6-[(4-methyl-1,4-diazepan-1-yl)methyl]-1H-imidazo[4,5-c]pyridin-1-yl}thiophene-2-carboxamide]
10 to 100 | C[C@@H](Oc1cc(-n2cnc3cnc(CN4CCN(CC(=O)N5CCCC5)CC4)cc32)sc1C(N)=O)c1ccccc1C(F)(F)F [Example 145, 5-(6-{[4-(2-oxo-2-pyrrolidin-1-ylethyl)piperazin-1-yl]methyl}-1H-imidazo[4,5-c]pyridin-1-yl)-3-{(1R)-1-[2-(trifluoromethyl)phenyl]ethoxy}thiophene-2-carboxamide]
< 10 | CCN1CCN(Cc2cc3c(cn2)ncn3-c2cc(O[C@H](C)c3ccccc3C(F)(F)F)c(C(N)=O)s2)CC1 [Example 107, 5-{6-[(4-ethylpiperazin-1-yl)methyl]-1H-imidazo[4,5-c]pyridin-1-yl}-3-{(1R)-1-[2-(trifluoromethyl)phenyl]ethoxy}thiophene-2-carboxamide]
10 to 100 | CCN1CCN(Cc2cc3c(cn2)ncn3-c2cc(OC(C)c3ccccc3F)c(C(N)=O)s2)CC1 (stereo not drawn) [Example 152, 5-{6-[(4-ethylpiperazin-1-yl)methyl]-1H-imidazo[4,5-c]pyridin-1-yl}-3-[1-(2-fluorophenyl)ethoxy]thiophene-2-carboxamide]
< 10 | C[C@@H](Oc1cc(-n2cnc3cnc(CN4CCN(C)CC4CO)cc32)sc1C(N)=O)c1ccccc1C(F)(F)F (stereo partly drawn) [Example 126, 5-(6-{[2-(hydroxymethyl)-4-methylpiperazin-1-yl]methyl}-1H-imidazo[4,5-c]pyridin-1-yl)-3-{(1R)-1-[2-(trifluoromethyl)phenyl]ethoxy}thiophene-2-carboxamide]
10 to 100 | CCc1ccccc1COc1cc(-n2cnc3cnc(CN4CCN(CC)CC4)cc32)sc1C(N)=O [Example 154, 3-[(2-ethylbenzyl)oxy]-5-{6-[(4-ethylpiperazin-1-yl)methyl]-1H-imidazo[4,5-c]pyridin-1-yl}thiophene-2-carboxamide]
10 to 100 | NC(=O)c1sc(-n2cnc3ccncc32)cc1OCc1ccccc1OC(F)(F)F [Example 29, 5-(3H-imidazo[4,5-c]pyridin-3-yl)-3-{[2-(trifluoromethoxy)benzyl]oxy}thiophene-2-carboxamide]
< 10 | C[C@@H](Oc1cc(-n2cnc3cnc(CN4CCN(CCO)CC4)cc32)sc1C(N)=O)c1ccccc1Cl [Example 127, 3-[(1R)-1-(2-chlorophenyl)ethoxy]-5-(6-{[4-(2-hydroxyethyl)piperazin-1-yl]methyl}-1H-imidazo[4,5-c]pyridin-1-yl)thiophene-2-carboxamide]
< 10 | CCC(Oc1cc(-n2cnc3cnc(CN4CCN(CC)CC4)cc32)sc1C(N)=O)c1ccccc1Cl (stereo not drawn) [Example 142]
< 10 | CC(Oc1cc(-n2cnc3cnc(CO)cc32)sc1C(N)=O)c1ccccc1OC(F)F (stereo not drawn) [Example 53]
10 to 100 | NC(=O)c1sc(-n2cnc3cnc(CNC4CC4)cc32)cc1OCc1ccccc1C(F)(F)F [Example 7, 5-{6-[(Cyclopropylamino)methyl]-1H-imidazo[4,5-c]pyridin-1-yl}-3-{[2-(trifluoromethyl)benzyl]oxy}thiophene-2-carboxamide]
10 to 100 | C[C@@H](Oc1cc(-n2cnc3cnc(CN4CCN(S(=O)(=O)c5ccccc5)CC4)cc32)sc1C(N)=O)c1ccccc1C(F)(F)F [Example 58, 5-(6-{[4-(phenylsulfonyl)piperazin-1-yl]methyl}-1H-imidazo[4,5-c]pyridin-1-yl)-3-{(1R)-1-[2-(trifluoromethyl)phenyl]ethoxy}thiophene-2-carboxamide]
10 to 100 | COc1cc2c(cn1)ncn2-c1cc(OCc2ccccc2C(F)(F)F)c(C(=O)O)s1 [Example 18, 5-(6-Methoxy-1H-imidazo[4,5-c]pyridin-1-yl)-3-{[2-(trifluoromethyl)benzyl]oxy}thiophene-2-carboxylic acid]
< 10 | C[C@@H](Oc1cc(-n2cnc3cnc(CN4CCC(O)C4)cc32)sc1C(N)=O)c1ccccc1C(F)(F)F (stereo partly drawn) [Example 94, 5-{6-[(3-hydroxypyrrolidin-1-yl)methyl]-1H-imidazo[4,5-c]pyridin-1-yl}-3-{(1R)-1-[2-(trifluoromethyl)phenyl]ethoxy}thiophene-2-carboxamide]
10 to 100 | CCC(Oc1cc(-n2cnc3cnc(CN4CCN(CCO)CC4)cc32)sc1C(N)=O)c1ccccc1Cl (stereo not drawn) [Example 138, 3-{[1-(2-chlorophenyl)propyl]oxy}-5-(6-{[4-(2-hydroxyethyl)piperazin-1-yl]methyl}-1H-imidazo[4,5-c]pyridin-1-yl)thiophene-2-carboxamide]
10 to 100 | C[C@@H](Oc1cc(-n2cnc3cnc(CN4CCN(CC(=O)N5CCOCC5)CC4)cc32)sc1C(N)=O)c1ccccc1C(F)(F)F [Example 124, 5-(6-{[4-(2-morpholin-4-yl-2-oxoethyl)piperazin-1-yl]methyl}-1H-imidazo[4,5-c]pyridin-1-yl)-3-{(1R)-1-[2-(trifluoromethyl)phenyl]ethoxy}thiophene-2-carboxamide]
10 to 100 | C[C@@H](Oc1cc(-n2cnc3cnc(CN4CCN(Cc5ccccc5)CC4)cc32)sc1C(N)=O)c1ccccc1C(F)(F)F [Example 79, 5-{6-[(4-benzylpiperazin-1-yl)methyl]-1H-imidazo[4,5-c]pyridin-1-yl}-3-{(1R)-1-[2-(trifluoromethyl)phenyl]ethoxy}thiophene-2-carboxamide]
< 10 | C[C@@H](Oc1cc(-n2cnc3cnc(CO)cc32)sc1C(N)=O)c1ccccc1Br [Example 52, 3-[(1R)-1-(2-bromophenyl)ethoxy]-5-[6-(hydroxymethyl)-1H-imidazo[4,5-c]pyridin-1-yl]thiophene-2-carboxamide]
100 to 1000 | CCOc1ccc(OCC)c(COc2cc(-n3cnc4cnc(CN5CCN(C)CC5)cc43)sc2C(N)=O)c1 [Example 155, 3-[(2,5-diethoxybenzyl)oxy]-5-{6-[(4-methylpiperazin-1-yl)methyl]-1H-imidazo[4,5-c]pyridin-1-yl}thiophene-2-carboxamide]

— patent publication US8273890B2 (4SC AG, priority 2007, dated 2012)
